The record followed here is patent US4446312A, “C-β-D-Xylopyranoside series compounds” (Seikagaku Kogyo Co., Ltd., priority 1980, dated 1984).

Read-outs that look alike come from different tables or passages of the source.

Data set [1] can be described thus: Acute toxicity by oral or intraperitoneal administration to ddY mice. The settings on record: mouse, in vivo, 7 days, Litchfield-Wilcoxon. Here is the method:
The acute toxicity of the compound according to this invention was determined by forced oral or intraperitoneal administration thereof to ddY mice.
To prepare each specimen to be administered, a predetermined amount of each compound shown in Table 1 was dissolved in a physiological saline or suspended in a 0.2% solution of carboxymethylcellulose in a physiological saline. Each specimen was administered orally to a ddY mouse via its stomach tube or injected intraperitoneally.

For another data set, the system named is Sarcoma-180. Briefly: Activity against a transplantable cancer, Sarcoma-180. The settings on record: 100 mg/Kg ip once a day for 10 days, starting 24 hrs. after inoculation. Format: in vivo, ICR-JCL mice. Here is the method: Sarcoma-180 cells (1×10^6 cells) were inoculated subcutaneously into the back skin of each of ICR-JCL mice.
Chemotherapy was given intraperitoneally 24 hrs. after inoculation and performed once a day for 10 days. Each specimen to be administered was prepared by dissolving or suspending 30 mg of each compound according to this invention in 1 ml of a pysiological saline or in 1 ml of a 0.2% solution of carboxymethylcellulose in a physiological saline, respectively.
All the solutions and the suspensions thus prepared were injected at a volume of 0.1 ml as a single dose (100 mg/Kg).
The inhibition ratio (%) was calculated according to the following equation: […]
wherein T represents the mean weight of the tumor Sarcoma-180 in a tested group of mice; and C represents the mean weight of the tumor in a control group of mice.

The subject of data set [2] is synthesis of chondroitin sulfate (glycosaminoglycan) in epiphysial cartilages. Briefly: Effect on synthesis of chondroitin sulfate (35S labelled glycosaminoglycan) in epiphysial cartilage. Format: cell-based, chick embryos. An excerpt: In each Figure, the vertical axis denotes the amount of ^35 S labelled chondroitin sulfate (^35 S cpm×10^-4 /μmol·uronic acid), and the horizontal axis denotes the concentration (mM) of each xylopyranoside compound in the culture medium, and
x x: Total uptake amount of ^35 S labelled chondroitin sulfate,
: Amount of ^35 S labelled chondroitin sulfate in culture medium, and
: Amount of ^35 S labelled chondroitin sulfate in tissue.
Epiphysial cartilages were taken from chick embryos aged 12 days in the Tyrode's medium under ice-cooling, and excess tissues were removed therefrom. To 150 mg of cartilages corresponding to five embryos, 5 ml of BGJb [an entirely synthetic culture medium prepared according to a recipe of GIBCO (Grand Island Biological Company)] was added, followed by pre-incubation at a temperature of 37° C. After replacing the culture medium, further 1 ml of BGJb and 5μCi Na2^35 SO4 were added, and the culture system was kept at 37° C. for 3 hours. The culture medium was then replaced by a fresh chase medium containing no isotope. After keeping the culture system at 37° C. for 1 hour, the culture medium was separated from the tissues. To study the effects of the xyloside compound on the synthesis of glycosaminoglycan, the xyloside compound was added in the predetermined concentration to the pre-incubation and incubation media.
After the incubation, the labeled medium containing Na2^35 SO4 was combined with the chase medium. Pronase-P was added thereto in a 0.5 M tris-HCl buffer solution (pH 8.0), and the resulting mixture was digested at 50° C. for 16 hours. The digested reaction mixture was then subjected to gel filtration through a column (1.5×14 cm) packed with Bio-Gel P-2 (available from Bio-Rad Company) using a 0.2 M ammonium formate solution as elute. In this way, the Vo fraction was collected and was then freeze-dried to give crude glycosaminoglycan.
On the other hand, ice-cooled 4 M guanidine hydrochloride was added to the tissues which were previously separated from the culture medium. The resulting mixture was left to stand overnight at a temperature of -20° C., and then homogenized. The obtained homogenate was left to stand overnight at room temperature and centrifuged at a speed of 8,500 rpm to obtain a supernatant. To the obtained liquid, water was added in an amount threefold that of the supernatant. Then, a 95% ethyl alcohol (containing 1.3% of potassium acetate) was added to the resulting mixture in an amount threefold that of the mixture to obtain a precipitate. This procedure was repeated twice, and the combined precipitates were dried in a desiccator. The obtained precipitates were dissolved in a 0.02 M tris-HCl buffer solution (pH 8.0) and digested with Pronase-P (trade name) (available from Kaken Kagaku Co., Ltd.) in the manner similar to the culture medium described above, thereby obtaining crude glycosaminoglycan.
As the xyloside compound, conventional O-paranitrophenyl-β-D-xylopyranoside, and two compounds according to the present invention viz. C-n-butyl-β-D-xylopyranoside and C-ethyl-β-D-xylopyranoside were used. The effects of these xyloside compounds on the total amount of ^35 S labelled glycosaminoglycan synthesized (^35 S uptake amount), the amount thereof liberated to the culture medium and the amount thereof remaining in the tissues were as shown in FIGS. 1 to 3.

[3] abbreviates: ip, intraperitoneal, read-out: LD50 (ip).

Usually LD50 stands for the dose at which mortality reaches 50%. `CC[C@@H]1OC[C@@H](O)[C@H](O)[C@H]1O` [C--Ethyl-β-D-xylopyranoside, C-Ethyl-β-D-xylopyranoside]: the 50% lethal dose (LD50) at 168 h is 2400 mg/kg in data set [1] (setting [3]) and 6900 mg/kg in data set [1] (oral, read-out: LD50 (po)). Besides, in the data set with Sarcoma-180, the “I.R. (inhibition ratio, tumor weight)” value was determined as 52.8%.
With `CCCC[C@@H]1OC[C@@H](O)[C@H](O)[C@H]1O` [C--n-Butyl-β-D-xylopyranoside, C-n-Butyl-β-D-xylopyranoside], the LD50 at 168 h amounted to 2400 mg/kg in data set [1] (setting [3]) and 5800 mg/kg in data set [1] (oral, read-out: LD50 (po)). For the same compound, the “I.R. (inhibition ratio, tumor weight)” value with Sarcoma-180 is recorded as 69.2%.
As to `O=[N+]([O-])c1ccc(O[C@@H]2OC[C@@H](O)[C@H](O)[C@H]2O)cc1` [O-paranitrophenyl-β-D-xylopyranoside], the “Effectiveness as initiator for the synthesis of chondroitin sulfate” value in data set [2] is “extremely effective”. For the same compound, in data set [2] (1 mM), the “35S uptake of glycosaminoglycan” value was 40,800 count per minute (cpm). For the same compound, the activity at 1000 µM in data set [2] (Gallus gallus, 1 mM, read-out: 35S labelled glycosaminoglycan liberated to the culture medium) came to 95%; in data set [2] (Gallus gallus, 1 mM, read-out: Amount of 35S labelled glycosaminoglycan remaining in the tissues), 11%. Besides, in data set [2] (Gallus gallus, 1 mM, read-out: 35S uptake of glycosaminoglycan relative to control), the fold induction at 1000 µM amounted to 2.35. For the same compound, the “35S uptake of glycosaminoglycan, concentration dependence” value in data set [2] (concentration rising from 0.05 mM to 1.0 mM) is “increased”.
